Measurements reported in patent publication US7700577B2, “Carbohydrate based anti-bacterials” (Alchemia Limited, priority 2002, dated 2010).

Experiments:
[1] = tested on: Streptococcus pyrogenes (ATCC8668); experiment: MIC testing, additional organisms: Streptococcus pyrogenes; type: cell-based; conditions: broth supplemented with 2% laked horse blood
From the text: (§1) The broth microdilution format of the National Committee for Clinical Laboratory Standards (NCCLS) approved standard for susceptibility tests as outlined in M7-A4 “methods for dillution Antimicrobial susceptibility tests for bacteria that grow aerobically; approved standard—fifth edition”, January 2000 was utilized for minimum inhibitory concentration testing in Mueller-Hinton broth. The broth for Streptococcus pyogenes testing was supplemented with 2% laked horse blood. A positive result in initial testing was determined by complete inhibition of macroscopic bacterial growth at a concentration of 128 micrograms per mL after incubation for 16 to 24 hours at 37 degrees C. In the case of Micrococcus luteus, incubation was at 30 degrees C.
(§2) Bacterial Types Are: • SA24 S. aureus after 24 hours exposure • SA48 S. aureus after 48 hours exposure • EC24 E. coli after 24 hours exposure
(§3) The following compounds were tested against additional organisims with the following results. • 1. Micrococcus luteus (ATCC272) • 2. Staphylococcus aureus (ATCC29213) • 3. Staphylococcus aureus (ATCC43300) MRSA • 4. Enterococcus faecalis (ATCC29212) • 5. Enterococcus faecalis (ATCCS 1299) Vancomycin resistant • 6. Streptococcus pyrogenes (ATCC8668)

[2] = tested on: Staphylococcus aureus (ATCC29213); experiment: MIC testing, additional organisms: Staphylococcus aureus ATCC29213; type: cell-based
From the text: as §1, §2, §3

[3] = tested on: Enterococcus faecalis (ATCC29212); experiment: MIC testing, additional organisms: Enterococcus faecalis ATCC29212; type: cell-based
From the text: as §1, §2, §3

[4] = tested on: Enterococcus faecalis (ATCCS 1299) Vancomycin resistant; experiment: MIC testing, additional organisms: Enterococcus faecalis vancomycin resistant; type: cell-based
From the text: as §1, §2, §3

S. aureus = experiment: MIC testing, broth microdilution (NCCLS), S. aureus; type: cell-based, Staphylococcus aureus
From the text: (§4) The broth microdilution format of the National Committee for Clinical Laboratory Standards (NCCLS) approved standard for susceptibility tests as outlined in M7-A4 “methods for dillution Antimicrobial susceptibility tests for bacteria that grow aerobically; approved standard—fifth edition”, January 2000 was utilized for minimum inhibitory concentration testing in Mueller-Hinton broth. The broth for Streptococcus pyogenes testing was supplemented with 2% laked horse blood. A positive result in initial testing was determined by complete inhibition of macroscopic bacterial growth at a concentration of 128 micrograms per mL after incubation for 16 to 24 hours at 37 degrees C. In the case of Micrococcus luteus, incubation was at 30 degrees C. […] Bacterial Types Are: • SA24 S. aureus after 24 hours exposure • SA48 S. aureus after 48 hours exposure • EC24 E. coli after 24 hours exposure

[5] = tested on: Staphylococcus aureus (ATCC43300) MRSA; experiment: MIC testing, additional organisms: Staphylococcus aureus MRSA; type: cell-based
From the text: as §1, §2, §3

E. coli = experiment: MIC testing, broth microdilution (NCCLS), E. coli; type: cell-based; conditions: E. coli after 24 hours exposure
From the text: as §4

[6] = tested on: Micrococcus luteus (ATCC272); experiment: MIC testing, additional organisms: Micrococcus luteus; type: cell-based; conditions: incubation at 30 degrees C
From the text: as §1, §2, §3

Structure (SMILES): CCCCCCCCCCC(=O)NC1C(CO)OCC(NC(=O)Nc2cccc(C(F)(F)F)c2)C1OC1OC(CO)C(O)C(O)C1NC(=O)Nc1cccc(C(F)(F)F)c1 (stereo not drawn) [compound 77]
- MIC, organism 6 [1]: + (+ indicates an MIC value of less than 128 micrograms per mL)
- MIC, organism 2 [2]: + (+ indicates an MIC value of less than 128 micrograms per mL)
- MIC, organism 4 [3]: + (+ indicates an MIC value of less than 128 micrograms per mL)
- MIC, organism 5 [4]: + (+ indicates an MIC value of less than 128 micrograms per mL)
- SA24 (MIC) (S. aureus; S. aureus after 24 hours exposure): + (+ indicates an MIC value of less than 128 micrograms per mL)
- SA48 (MIC) (S. aureus; S. aureus after 48 hours exposure): + (+ indicates an MIC value of less than 128 micrograms per mL)
- MIC, organism 3 [5]: + (+ indicates an MIC value of less than 128 micrograms per mL)
- EC24 (MIC) (E. coli): − (− indicates an MIC of greater then 128 micrograms per mL)
- MIC, organism 1 [6]: + (+ indicates an MIC value of less than 128 micrograms per mL)
